Broadly, the pKa is the pH at which an ionisable group is half protonated.

Consider six compounds from patent US10323017B2, “Antioxidants and methods to maximize performance” (University of Ottawa, priority 2015, dated 2019).

Data set [1] in a line: pKa measurement by titration of hydrochloride salts with NaOH. It is filed as physicochemical. To be noted: 4:1 (v:v) CH3CN:H2O solution of the hydrochloride salt; in 4:1 CH3CN:H2O; read-out: pKa of the conjugate acid. Here is the method: Solutions of the hydrochloride salts of diarylamines 1-7 (1 mM) were made up in 4:1 CH3CN:H2O (3.0 mL) and the pH was measured using an Accument Electrode microbe referenced to Ag/Ag^+ as a function of added volumes of NaOH (10 mM). […] The titration curves for the diarylamines are shown in FIGS. 6A and 6B (averages of triplicate experiments), and the pKas reported in the manuscript correspond to the pH when 0.5 molar equivalents of NaOH were added to the solution.

The nature of data set [2]: Hexadecane autoxidation at 160° C. (hydroperoxide formation), stirred flow reactor, initiated by tetralin hydroperoxide. The settings on record: for effect of added palmitic acid on inhibitory activity: 1 mM palmitic acid; for effect of added base 2,4,6-tri-tert-butylpyridine on inhibition of autoxidation: TTBP 1 mM vs. no base. Here is the method: To evaluate the effect of an added sacrificial base on the high-temperature radical-trapping activity of antioxidants, autoxidations of n-hexadecane were carried out at 160° C. in a stirred flow reactor in the absence of or presence of a base, where a constant positive pressure of O2 was used to stir the medium and prevent mass transfer from becoming rate limiting (Igarashi, J., et al., J. Am. Chem. Soc. 1992, 114, 7727; Jensen, R.; et al., J. Am. Chem. Soc. 1979, 101, 7574). Tetralin hydroperoxide (10 mM) was used as a radical initiator since inhibited autoxidations in the absence of an initiator were very slow. At regular intervals, aliquots of the reaction mixture were removed, cooled and the concentration of hydroperoxide products determined by reaction with a developed fluorogenic phosphine (Hanthorn, J. J., et al., Chem. Commun. 2012, 48, 10141). Autoxidations were followed for the first 2% of the reaction, based on hydroperoxide formation, since beyond ca. 3% conversion, the hydroperoxide yield begins to decrease and highly complex mixtures of ketones, alcohols, carboxylic acids and esters arise.
n-Hexadecane (100 mL) was thoroughly degassed with argon and heated to 160° C. while argon was continuously bubbled through the liquid. […] For those experiment where acid or base was present, as noted in the figure captions, they were also added at this point. Aliquots (0.5 mL) were removed every 5 minutes, and allowed to cool to room temperature for analysis. Four duplicates (30 μL) of each sample were loaded into separate wells of a 96-well microplate and the automated reagent dispenser of the microplate reader was used to dilute each sample with tert-amyl alcohol (200 μL) and a solution of fluorogenic phosphine dye solution (20 μL of a 250 μM stock solution in acetonitrile) immediately before reading. The plate was stirred for 8 seconds, allowed to rest for 2 more seconds, and the fluorescence of each well was measured every second for 60 seconds (absorption at 340; emission at 425). The concentration of hydroperoxide was determined from the rate of phosphine oxidation using the rate constant for the reaction of the dye with secondary hydroperoxides in tert-amyl alcohol (k=1.2 M^−1s^−1) assuming pseudo-first-order kinetics. See sample data from an uninhibited autoxidation and one inhibited with diarylamine 4 alongside analogous experiments in the absence of the initiator tetralin hydroperoxide, or O2 (FIGS. 2C-E). Further results are presented in FIGS. 7 to 17 for hexadecane autoxidations and FIGS. 18 and 19 for tetralin autooxidations in the presence and absence of antioxidants, and at varying pH. FIGS. 14-17 correspond to hexadecane autoxidations carried out for diarylamine 4 in the presence of four different bases. FIGS. 7-13 correspond to hexadecane autoxidations carried out for compounds 1-7 and 20 in the presence and absence of a base, specifically, 2,4,6-tri-tert-butylpyridine. FIG. 5A corresponds to hexadecane autoxidations carried out for diarylamine 4 and 7 in the presence and absence of palmitic acid.

A short description of data set [3]: Tetralin autoxidation at 70° C. initiated by azobis(α-tetralin). To be noted: hexanoic acid 50 μM, antioxidant 2 μM. Here is the method:
Fresh tetralin was prepared by passing it through a column of silica. Tetralin (1.0 mL) was added to a glass vial, followed by chlorobenzene (1.0 mL). A magnetic Teflon-coated stir bar was added, and the vial was capped with a rubber septum. The vial was then placed in a heating block at 70° C. for 5 minutes. Antioxidant (4, 7) (0.002 mmol) were added. For those experiment where acid was present, as noted in the figure captions, hexanoic acid (0.050 mmol) was also added at this point. Azobis(α-tetralin) (0.1 mmol) was added as the initiator. The solution was stirred for 30 s and the first sample was taken. 100 μL samples were taken at regular intervals and added to 900 μL of a solution containing 2.2 mM benzyl alcohol, 10 mM butylated-hydroxytoluene, and 10 mM triphenylphosphine in 2% isopropanol/hexanes (HPLC grade). Samples were analysed using a Waters 2695 Alliance HPLC (2.0% iPrOH/hexanes, 1.6 ml min^−1; 10 min; Sunfire Silica column (5 μm, 4.6×250 mm)) and analysed by UV absorbance.

Data set [4] can be described thus: Cyclic voltammetry (standard potential). It is filed as physicochemical. The settings on record: 1 mM in CH3CN containing 0.1 M Bu4NPF6. Here is the method: A standard potential for diarylamine 5 was measured from its cyclic voltammagram obtained using a BASi potentiostat (available from BASi Analytical Instruments, West La Fayette, Ind., USA) with a glassy carbon working electrode, a platinum counter electrode and a Ag/AgNO3 reference electrode. The diarylamine was dissolved in degassed acetonitrile containing 0.1 M tetrabutylammonium hexafluorophosphate as supporting electrolyte and the current recorded in the range of 0-1 V at a scan rate of 200 mV/s. Standard potentials of the other compounds are reported in previous publications. A cyclic voltammogram of diarylamine 5 (1 mM in CH3CN containing 0.1 M Bu4NPF6) vs. Ag/Ag^+ gave E^0=0.84 V vs. NHE.

The nature of data set [5]: Peroxyl radical clock kinetics. The settings on record: double reciprocal plot. Here is the method:
Peroxyl radical clocking experiments (to determine the inhibition rate constant kinh) for compound 5 were carried out according to our previously published reports (see Hanthorn, J., et al. J. Org. Chem. 2012, 77, 6895). Inhibition rate constants of the other compounds are as reported previously. A double reciprocal plot was used to obtain km=2.4×10^7 M^−1s^−1 for compound 5.

The nature of data set [6]: Diarylamine stability to oxygen at 160° C. in n-hexadecane. It counts as physicochemical. Here is the method:
n-Hexadecane (100 mL) was thoroughly degassed with argon and then heated to 160° C. while argon was continuously bubbled through the liquid. Once the temperature stabilized, 2.5 mmol of diarylamines 1-7 were added to the solution and the flow of argon was replaced with 02. Aliquots (100 μL) were removed every 10 minutes, and added to 900 μL of a 2.2 mM solution of benzyl alcohol (internal standard) in 2% isopropanol/hexanes (HPLC grade). Samples were analysed using a Waters 2695 Alliance HPLC at a flow rate of 2.1 mL min^−1 (8.0% PrOH/hexanes) on a Sunfire Silica column (5 μm, 4.6×250 mm) and determined by their UV absorbance.

Setting [7] is: TTBP 1 mM, 40 μM antioxidant, 160° C.

Each structure is given as a SMILES string.

As for `c1ccc(Nc2ccccc2)cc1` [Compound 7, reference compound], the pKa in data set [1] was 4.6 ± 0.3. Besides, in data set [2] (40 μM antioxidant, 160° C.), the “effect of added palmitic acid on inhibitory activity” value is listed as “unchanged” and the “effect of added base 2,4,6-tri-tert-butylpyridine on inhibition of autoxidation” value (“effect … on inhibition of autoxidation” for short) is “no effect”. Also, the “effect … on inhibition of autoxidation” value in data set [2] (40 μM antioxidant, 160° C., listed as diphenylamine) is given as “did not impact the reactivity”. Besides, the “effect of added acid on antioxidant activity” value in data set [3] is “does not affect the activity”.
Take `CCCCCCCCN(CCCCCCCC)c1ncc(Nc2ccc(C(C)(C)C)cc2)cn1` [Compound 20, N^5-(4-(tert-butyl)phenyl)-N^2,N^2-dioctylpyrimidine-2,5-diamine]: in data set [2] (40 μM, with and without TTBP 1 mM, 160° C. (FIG. 9)), the “stability and reactivity compared with compound 4” value was “slightly increased stability and reactivity”.
As for `CCCCCCN(CCCCCC)c1ncc(Nc2ccccc2)cn1` [Compound 4, N^2,N^2-Dihexyl-N^5-phenylpyrimidine-2,5-diamine], the pKa in data set [1] worked out at 8.2 ± 0.2. Also, the “difference in Δt2% (delay to reach [ROOH]=2%) relative to 7” value in data set [2] (40 μM antioxidant, TTBP 1 mM, 160° C.) amounted to 12.5 fold. In data set [2] (40 μM antioxidant, 160° C.), the “effect of added palmitic acid on inhibitory activity” value was “disrupt the inhibitory activity” and the “effect … on inhibition of autoxidation” value is “unprecedented inhibited period”. Further, in data set [2] (setting [7]), the “inhibition of autoxidation in the presence of added base, compared with 7” value (“inhibition of autoxidation … compared with 7” for short) is given as “particularly good”. Further, in data set [2] (cesium carbonate, potassium carbonate, or Primene 81-R (1 mM), 160° C.), the “effect of other bases on activity” value is “rescued”.
Consider `CCCCCCc1ncc(Nc2cnc(N(CCCC)CCCC)nc2)cn1` [Compound 5, N^2,N^2-Dibutyl-N^5-(2-hexylpyrimidin-5-yl)pyrimidine-2,5-diamine], for which the “standard potential E^0” value in data set [4] was 0.84 V vs. NHE. Besides, the pKa in data set [1] came to 8.3 ± 0.1. Besides, the “inhibition rate constant kinh (printed km)” value in data set [5] amounted to 2.4e+07 M⁻¹ s⁻¹. Moreover, in data set [2] (setting [7]), the “inhibition of autoxidation … compared with 7” value is “particularly good”.
Turning to `CCCCCCN(CCCCCC)c1ccc(Nc2ccccc2)cn1` [Compound 3, N^2,N^2-Dihexyl-N^5-phenylpyridine-2,5-diamine], the “stability to O2” value in data set [6] is given as “relatively unstable”. Also, the pKa in data set [1] was determined as 8.4 ± 0.1. The “inhibition of autoxidation … compared with 7” value in data set [2] (setting [7]) was “superior to 7”.
As to `CCCCN(CCCC)c1ncc(Nc2cnc(N(CCCC)CCCC)nc2)cn1` [Compound 2, N^2,N^2-Dibutyl-N^5-(2-(dibutylamino)pyrimidin-5-yl)pyrimidine-2,5-diamine], the pKa in data set [1] is 8.8 ± 0.1. In addition, the “inhibition of autoxidation … compared with 7” value in data set [2] (setting [7]) was “particularly good”.
